Reference: the NIST ThermoML archive (doi:10.1021/je5007532)
± gives the expanded uncertainty stated by the source.

Legend:
[1] = for viscosity: 100 kPa, Falling or rolling sphere viscometry; for viscosity / speed of sound / mass density: Liquid; for speed of sound / mass density: 101 kPa; for speed of sound: Sing-around technique in a fixed-path interferometer; for mass density: Vibrating tube method; for surface tension liquid-gas: 294.4 K, Pendant drop shape
[2] = xn = mol fraction of the nth substance listed; settings: x2 = 0; for viscosity: 100 kPa, Falling or rolling sphere viscometry; for viscosity / speed of sound / mass density: Liquid; for speed of sound / mass density: 101 kPa; for speed of sound: Sing-around technique in a fixed-path interferometer; for mass density: Vibrating tube method

CC(C)CC(C)(C)C [2,2,4-trimethylpentane]
viscosity ([1]; 293.15 K): 0.501 ± 0.004 mPa·s
speed of sound ([1]; 293.15 K): 1103.2 ± 0.8 m/s
mass density ([1]; 293.15 K): 691.84 ± 0.17 kg/m3
surface tension liquid-gas [1]: 18.7 ± 0.4 mN/m
viscosity ([1]; 298.15 K): 0.473 ± 0.004 mPa·s
speed of sound ([1]; 298.15 K): 1082 ± 0.8 m/s
mass density ([1]; 298.15 K): 687.7 ± 0.17 kg/m3
viscosity ([1]; 303.15 K): 0.447 ± 0.004 mPa·s
speed of sound ([1]; 303.15 K): 1061.4 ± 0.8 m/s
mass density ([1]; 303.15 K): 683.59 ± 0.17 kg/m3
viscosity ([1]; 308.15 K): 0.423 ± 0.004 mPa·s
speed of sound ([1]; 308.15 K): 1040.4 ± 0.8 m/s
mass density ([1]; 308.15 K): 679.4 ± 0.17 kg/m3
speed of sound ([1]; 313.15 K): 1020 ± 0.8 m/s
mass density ([1]; 313.15 K): 675.23 ± 0.17 kg/m3
viscosity ([1]; 318.15 K): 0.38 ± 0.004 mPa·s
speed of sound ([1]; 318.15 K): 999.3 ± 0.8 m/s
mass density ([1]; 318.15 K): 670.98 ± 0.17 kg/m3
viscosity ([1]; 323.15 K): 0.361 ± 0.003 mPa·s
speed of sound ([1]; 323.15 K): 979.2 ± 0.8 m/s
mass density ([1]; 323.15 K): 666.75 ± 0.18 kg/m3
viscosity ([1]; 328.15 K): 0.343 ± 0.003 mPa·s
speed of sound ([1]; 328.15 K): 958.7 ± 0.8 m/s
mass density ([1]; 328.15 K): 662.44 ± 0.18 kg/m3
viscosity ([1]; 333.15 K): 0.326 ± 0.005 mPa·s
speed of sound ([1]; 333.15 K): 938.6 ± 0.8 m/s
mass density ([1]; 333.15 K): 658.16 ± 0.18 kg/m3
speed of sound ([1]; 338.15 K): 918.7 ± 0.8 m/s
mass density ([1]; 338.15 K): 653.8 ± 0.18 kg/m3
speed of sound ([1]; 343.15 K): 899 ± 0.6 m/s
mass density ([1]; 343.15 K): 649.4 ± 0.18 kg/m3

CCCCCCC [heptane]
viscosity ([1]; 293.15 K): 0.41 ± 0.004 mPa·s
speed of sound ([1]; 293.15 K): 1151.7 ± 0.8 m/s
mass density ([1]; 293.15 K): 683.85 ± 0.16 kg/m3
surface tension liquid-gas [1]: 20.3 ± 0.3 mN/m
viscosity ([1]; 298.15 K): 0.389 ± 0.004 mPa·s
speed of sound ([1]; 298.15 K): 1130.1 ± 0.8 m/s
mass density ([1]; 298.15 K): 679.61 ± 0.16 kg/m3
viscosity ([1]; 303.15 K): 0.368 ± 0.003 mPa·s
speed of sound ([1]; 303.15 K): 1109.1 ± 0.7 m/s
mass density ([1]; 303.15 K): 675.35 ± 0.16 kg/m3
viscosity ([1]; 308.15 K): 0.349 ± 0.003 mPa·s
speed of sound ([1]; 308.15 K): 1087.5 ± 0.7 m/s
mass density ([1]; 308.15 K): 671.05 ± 0.16 kg/m3
speed of sound ([1]; 313.15 K): 1066.6 ± 0.7 m/s
mass density ([1]; 313.15 K): 666.73 ± 0.16 kg/m3
viscosity ([1]; 318.15 K): 0.315 ± 0.003 mPa·s
speed of sound ([1]; 318.15 K): 1045.4 ± 0.7 m/s
mass density ([1]; 318.15 K): 662.38 ± 0.16 kg/m3
viscosity ([1]; 323.15 K): 0.3 ± 0.003 mPa·s
speed of sound ([1]; 323.15 K): 1024.7 ± 0.7 m/s
mass density ([1]; 323.15 K): 657.99 ± 0.17 kg/m3
viscosity ([1]; 328.15 K): 0.284 ± 0.003 mPa·s
speed of sound ([1]; 328.15 K): 1003.6 ± 0.7 m/s
mass density ([1]; 328.15 K): 653.57 ± 0.17 kg/m3
viscosity ([1]; 333.15 K): 0.271 ± 0.005 mPa·s
speed of sound ([1]; 333.15 K): 983 ± 0.7 m/s
mass density ([1]; 333.15 K): 649.11 ± 0.17 kg/m3
speed of sound ([1]; 338.15 K): 962.3 ± 0.7 m/s
mass density ([1]; 338.15 K): 644.6 ± 0.17 kg/m3

CCCCCCC [heptane] + CC(C)CC(C)(C)C
viscosity ([2]; 293.15 K): 0.41 ± 0.004 mPa·s
speed of sound ([2]; 293.15 K): 1151.7 ± 0.8 m/s
mass density ([2]; 293.15 K): 683.85 ± 0.16 kg/m3
surface tension liquid-gas ([2]; 294.4 K, Pendant drop shape): 20.3 ± 0.3 mN/m
viscosity ([2]; 298.15 K): 0.389 ± 0.004 mPa·s
speed of sound ([2]; 298.15 K): 1130.1 ± 0.8 m/s
mass density ([2]; 298.15 K): 679.61 ± 0.16 kg/m3
viscosity ([2]; 303.15 K): 0.368 ± 0.003 mPa·s
speed of sound ([2]; 303.15 K): 1109.1 ± 0.7 m/s
mass density ([2]; 303.15 K): 675.35 ± 0.16 kg/m3
viscosity ([2]; 308.15 K): 0.349 ± 0.003 mPa·s
speed of sound ([2]; 308.15 K): 1087.5 ± 0.7 m/s
mass density ([2]; 308.15 K): 671.05 ± 0.16 kg/m3
speed of sound ([2]; 313.15 K): 1066.6 ± 0.7 m/s
mass density ([2]; 313.15 K): 666.73 ± 0.16 kg/m3
viscosity ([2]; 318.15 K): 0.315 ± 0.003 mPa·s
speed of sound ([2]; 318.15 K): 1045.4 ± 0.7 m/s
mass density ([2]; 318.15 K): 662.38 ± 0.16 kg/m3
viscosity ([2]; 323.15 K): 0.3 ± 0.003 mPa·s
speed of sound ([2]; 323.15 K): 1024.7 ± 0.7 m/s
mass density ([2]; 323.15 K): 657.99 ± 0.17 kg/m3
viscosity ([2]; 328.15 K): 0.284 ± 0.003 mPa·s
speed of sound ([2]; 328.15 K): 1003.6 ± 0.7 m/s
mass density ([2]; 328.15 K): 653.57 ± 0.17 kg/m3
viscosity ([2]; 333.15 K): 0.271 ± 0.005 mPa·s
speed of sound ([2]; 333.15 K): 983 ± 0.7 m/s
mass density ([2]; 333.15 K): 649.11 ± 0.17 kg/m3
speed of sound ([2]; 338.15 K): 962.3 ± 0.7 m/s
mass density ([2]; 338.15 K): 644.6 ± 0.17 kg/m3
